Measured values from US8119569B2, “Benzoylpyrazole compounds, process for their production and herbicides containing them” (Ishihara Sangyo Kaisha, Ltd., priority 2006, dated 2012).

Experiments:
Assay type in all cases: in vivo
[1] = system: velvetleaf (Abutilon theophrasti MEDIC.); assay: Test Example 1: foliar treatment, upland pot; settings: 7 g/ha, 21st day after application
Text: Upland field soil was put into a 1/170,000 hectare pot, and seeds of various plants were sown. […] The spray solutions thus prepared were applied for foliar treatment by a small sprayer.

[2] = system: barnyardgrass (Echinochloa crus-galli L.); assay: Test Example 1: foliar treatment, upland pot; settings: 7 g/ha, 21st day after application
Text: (§1) Upland field soil was put into a 1/170,000 hectare pot, and seeds of various plants were sown. When the respective plants reached predetermined leaf stage ((1) barnyardgrass (Echinochloa crus-galli L.): 1.0 to 3.3 leaf stage, (2) crabgrass (Digitaria sanguinalis L.): 1.2 to 3.0 leaf stage, (3) green foxtail (Setaria viridis L.): 1.5 to 3.3 leaf stage, (4) redroot pigweed (Amaranthus retroflexus L.): 0.1 to 2.0 leaf stage, (5) prickly sida (Sida spinosa L.): cotyledon stage to 2.0 leaf stage, (6) velvetleaf (Abutilon theophrasti MEDIC.): 0.1 to 2.0 leaf stage, (7) rice (Oryza sativa L.): 1.3 to 3.0 leaf stage, (8) corn (Zea mays L.): 2.5 to 3.4 leaf stage, and (9) soybean (Glycine max Merr.): primary leaf stage to 0.3 leaf stage), wettable powders or emulsifiable concentrates of the compounds of the present invention prepared in accordance with a conventional preparation method, were weighed so that the active ingredients became the prescribed amounts, and diluted with water in an amount corresponding to 500 liter per 1 hectare (containing 0.1 vol % of an agricultural spreader (“KUSARINOH”, manufactured by NIHON NOHYAKU CO., LTD.)). The spray solutions thus prepared were applied for foliar treatment by a small sprayer.

corn (Zea mays L.) [3] = assay: Test Example 1: foliar treatment, upland pot; settings: 7 g/ha, 21st day after application, crop
Text: as §1

[4] = system: crabgrass (Digitaria sanguinalis L.); assay: Test Example 1: foliar treatment, upland pot; settings: 7 g/ha, 21st day after application
Text: as §1

[5] = system: green foxtail (Setaria viridis L.); assay: Test Example 1: foliar treatment, upland pot; settings: 7 g/ha, 21st day after application
Text: as §1

[6] = system: prickly sida (Sida spinosa L.); assay: Test Example 1: foliar treatment, upland pot; settings: 7 g/ha, 21st day after application
Text: as §1

[7] = system: redroot pigweed (Amaranthus retroflexus L.); assay: Test Example 1: foliar treatment, upland pot; settings: 7 g/ha, 21st day after application
Text: as §1

rice (Oryza sativa L.) [8] = assay: Test Example 1: foliar treatment, upland pot; settings: 7 g/ha, 21st day after application, crop
Text: as §1

[9] = system: soybean (Glycine max Merr.); assay: Test Example 1: foliar treatment, upland pot; settings: 7 g/ha, 21st day after application, crop
Text: as §1

[10] = system: barnyardgrass (Echinochloa crus-galli L.); assay: Test Example 2: soil application on the day after sowing; settings: 250 g/ha, 19th to 22nd day after application
Text: (§2) Upland field soil was put into a 1/170,000 hectare pot, and seeds of various plants (barnyardgrass (Echinochloa crus-galli L.), crabgrass (Digitaria sanguinalis L.), green foxtail (Setaria viridis L.), redroot pigweed (Amaranthus retroflexus L.), prickly sida (Sida spinosa L.), velvetleaf (Abutilon theophrasti MEDIC.), rice (oryza sativa L.), corn (Zea mays L.) and soybean (Glycine max Merr.)) were sown. On the day after sowing, wettable powders or emulsifiable concentrates of the compounds of the present invention prepared in accordance with a conventional preparation method, were weighed so that the active ingredients became the prescribed amounts, and diluted with water in an amount corresponding to 500 liter per 1 hectare, followed by soil application with a small sprayer.

corn (Zea mays L.) [11] = assay: as above; settings: 250 g/ha, 19th to 22nd day after application, crop
Text: as §2

[12] = system: crabgrass (Digitaria sanguinalis L.); assay: as above; settings: 250 g/ha, 19th to 22nd day after application
Text: as §2

[13] = system: green foxtail (Setaria viridis L.); assay: as above; settings: 250 g/ha, 19th to 22nd day after application
Text: as §2

[14] = system: prickly sida (Sida spinosa L.); assay: as above; settings: 250 g/ha, 19th to 22nd day after application
Text: as §2

[15] = system: redroot pigweed (Amaranthus retroflexus L.); assay: as above; settings: 250 g/ha, 19th to 22nd day after application
Text: as §2

rice (Oryza sativa L.) [16] = assay: as above; settings: 250 g/ha, 19th to 22nd day after application, crop
Text: as §2

[17] = system: soybean (Glycine max Merr.); assay: as above; settings: 250 g/ha, 19th to 22nd day after application, crop
Text: as §2

[18] = system: velvetleaf (Abutilon theophrasti MEDIC.); assay: as above; settings: 250 g/ha, 19th to 22nd day after application
Text: as §2

[19] = system: Japanese bulrush (Scirpus juncoides); assay: Test Example 4: paddy field pot, water application; settings: 63 g/ha, 14th day after application
Text: (§3) Paddy field soil was put into a 1/1,000,000 hectare pot, and seeds of barnyardgrass (Echinochloa oryzicola vasing.) and Japanese bulrush (Scirpus juncoides) were sown and lightly covered with soil. Then, pot was left to stand in a greenhouse in a state irrigated to a water depth of from 0.5 to 1 cm, and next day or two days later, tubers of Japanese ribbon waparo (Sagittaria pygmaea) were planted. Then, the irrigated water depth was maintained to be from 3 to 4 cm, and when barnyardgrass and Japanese bulrush reached 0.5 leaf stage, and Japanese ribbon waparo reached primary leaf stage, a water diluted solution of a wettable powder or an emulsifieable concentrate of the compound of the present invention prepared in accordance with a conventional preparation method, was uniformly dropwise applied by a pipette so that the amount of active ingredients would be a prescribed amount. Further, paddy field soil was put into a 1/1,000,000 pot, followed by soil puddling to an irrigated water depth of from 3 to 4 cm. Next day, rice (Oryza sativa L.) (var.: Nihonbare) of two leaf stage was transplanted in a transplantation depth of 3 cm. On the 4th day after transplantation, the compound of the present invention was applied in the same manner as described above.

[20] = system: Japanese ribbon waparo (Sagittaria pygmaea); assay: Test Example 4: paddy field pot, water application; settings: 63 g/ha, 14th day after application
Text: as §3

[21] = system: barnyardgrass (Echinochloa oryzicola vasing.); assay: Test Example 4: paddy field pot, water application; settings: 63 g/ha, 14th day after application
Text: as §3

[22] = system: rice (Oryza sativa L.) (var.: Nihonbare); assay: Test Example 4: paddy field pot, water application, transplanted rice; settings: 63 g/ha, 21st day after application, crop
Text: as §3

| SMILES | Growth inhibition rate (%) Velvetleaf [1] | Growth inhibition rate (%) Barnyardgrass [2] | Growth inhibition rate (%) Corn (corn (Zea mays L.) [3]) | Growth inhibition rate (%) Crabgrass [4] | Growth inhibition rate (%) Green foxtail [5] | Growth inhibition rate (%) Prickly sida [6] | Growth inhibition rate (%) Redroot pigweed [7] | Growth inhibition rate (%) Rice (rice (Oryza sativa L.) [8]) | Growth inhibition rate (%) Soybean [9] | Growth inhibition rate (%) Barnyardgrass [10] | Growth inhibition rate (%) Corn (corn (Zea mays L.) [11]) | Growth inhibition rate (%) Crabgrass [12] | Growth inhibition rate (%) Green foxtail [13] | Growth inhibition rate (%) Prickly sida [14] | Growth inhibition rate (%) Redroot pigweed [15] | Growth inhibition rate (%) Rice (rice (Oryza sativa L.) [16]) | Growth inhibition rate (%) Velvetleaf [18] | Growth inhibition rate (%) Japanese bulrush [19] | Growth inhibition rate (%) Barnyardgrass [21] | Growth inhibition rate (%) Rice [22] | further results |
| --- | --- | --- | --- | --- | --- | --- | --- | --- | --- | --- | --- | --- | --- | --- | --- | --- | --- | --- | --- | --- | --- |
| CCOC(=O)OC(C)Oc1c(C(=O)c2ccc(S(C)(=O)=O)c(OCCOC)c2C)cnn1CC (racemic) [compound 3] | 90% | 95% | 0% | 95% | 100% | 10% | 90% | 80% | 70% | 100% | 0% | 100% | 100% | 50% | 100% | 100% | 80% | 95% | 100% | 40% | Growth inhibition rate (%) Soybean [17]: 20%; Growth inhibition rate (%) Japanese ribbon waparo [20]: 90% |
| COCCOc1c(S(C)(=O)=O)ccc(C(=O)c2cnn(C)c2OC(C)OC(=O)OC(C)C)c1C (racemic) [compound 4] | 98% | 100% | 0% | 90% | 100% | 40% | 90% | 30% | 90% | 100% | 0% | 100% | 95% | 90% | 95% | 90% | 70% | 95% | 100% | 50% | Growth inhibition rate (%) Soybean [17]: 0%; Growth inhibition rate (%) Japanese ribbon waparo [20]: 90% |
| CCOC(=O)OC(C)Oc1c(C(=O)c2ccc(S(C)(=O)=O)c(COC)c2C)cnn1C (racemic) [compound 7] | 98% | 95% | 0% | 90% | 90% | 80% | 85% | 70% | 95% | 100% | 0% | 90% | 40% | 80% | 80% | 90% | 70% | 70% | 100% | 70% | Growth inhibition rate (%) Soybean [17]: 0%; Growth inhibition rate (%) Japanese ribbon waparo [20]: 60% |
| CCOC(=O)OC(C)Oc1c(C(=O)c2ccc(S(C)(=O)=O)c(COCC(F)(F)F)c2C)cnn1C (racemic) [compound 15] | 98% | 70% | 10% | 95% | 75% | 0% | 90% | 40% | 75% | 100% | 0% | 100% | 100% | 70% | 100% | 100% | 100% | 60% | 100% | 10% | Growth inhibition rate (%) Soybean [17]: 0% |
| CCOC(=O)OC(C)Oc1c(C(=O)c2ccc(S(C)(=O)=O)c(OCCOC)c2C)cnn1C(C)C (racemic) [compound 18] | 95% | 95% | 0% | 95% | 90% | 30% | 95% | 70% | 80% | 100% | 0% | 100% | 100% | 70% | 100% | 100% | 100% | 90% | 100% | 0% | Growth inhibition rate (%) Japanese ribbon waparo [20]: 90% |
| CCOC(=O)OC(C)Oc1c(C(=O)c2ccc(S(C)(=O)=O)c(C(=O)OC)c2C)cnn1C (racemic) [compound 21] | 85% | 90% | 0% | 90% | 80% |  | 90% | 80% | 95% | 100% | 0% | 100% | 100% | 60% | 100% | 100% | 90% | 70% | 100% | 10% | Growth inhibition rate (%) Soybean [17]: 50%; Growth inhibition rate (%) Japanese ribbon waparo [20]: 70% |
